How the values were obtained:
[1] = system: HIV-IIIb; assay: Test A: Antiviral Assay in MT4 Cells; format: cell-based, HIV-1; conditions: Human immunodeficiency virus 1, IIIB, MT4, 120 h; for inhibition at 0.2 µM: read-out: % inhibition at 0.2 μM; for inhibition at 2 µM: read-out: % inhibition at 2 μM
Description: Test A: Antiviral Assay in MT4 Cells
(§1) MT-4 cells were next mixed with HIV-IIIb at an m.o.i of 0.003 for 1 hour, after which time 35 μL of virus/cell mixture (2000 cells) was immediately added to each well containing 40 μL of diluted compound. The plates were then incubated at 37° C. for 5 days. […] Cell lysis was carried out by incubating at room temperature for 10 min and then chemiluminescence was read.

[2] = Test B: Cytotoxicity Assay; format: cell-based; conditions: human, uninfected MT-4 cells, same protocol as Test A
Description: as §1
Test B: Cytotoxicity Assay
Compound cytotoxicity and the corresponding CC50 values was determined using the same protocol as described in the antiviral assay (Test A) except that uninfected cells were used.

Compound	inhibition at 0.2 µM [1] [%]	inhibition at 2 µM [1] [%]	CC50 at 5 days [2] [µM]
Cn1nc(NS(C)(=O)=O)c2c(Cl)ccc(-c3ccc(C#CC(C)(C)O)nc3[C@H](Cc3cc(F)cc(F)c3)NC(=O)Cc3c[nH]c4ccc(F)cc34)c21 [Compound 193, (S)—N-(1-(3-(4 chloro-1-methyl-3-(methylsulfonamido)-1H-indazol-7-yl)-6-(3-hydroxy-3-methylbut-1-yn-1-yl)pyridin-2-yl)-2-(3,5-difluorophenyl)ethyl)-2-(5-fluoro-1H-indol-3-yl)acetamide]	92	92	23.1
Cn1nc(NC(=O)CNC2CC2)c2c(Cl)ccc(-c3ccc(C#CC(C)(C)O)nc3[C@H](Cc3cc(F)cc(F)c3)NC(=O)Cn3nc(C(F)F)c4c3C(F)(F)[C@@H]3C[C@H]43)c21 [Compound 102, N—((S)-1-(3-(4-chloro-3-(2-(cyclopropylamino)acetamido)-1-methyl-1H-indazol-7-yl)-6-(3-hydroxy-3-methylbut-1-yn-1-yl)pyridin-2-yl)-2-(3,5-difluorophenyl)ethyl)-2-((3b-S,4aR)-3-(difluoromethyl)-5,5-difluoro-3b,4,4a,5-tetrahydro-1H-cyclopropa[3,4]cyclopenta[1,2-c]pyrazol-1-yl)acetamide]	100	100	5.82
Cn1nc(NS(C)(=O)=O)c2c(Cl)ccc(-c3ccc(C#CC(C)(C)O)nc3[C@H](Cc3cc(F)cc(F)c3)NC(=O)Cn3nc(C(F)F)c4c3C(F)(F)CCC4(F)F)c21 [Compound 82, (S)—N-(1-(3-(4 chloro-1-methyl-3-(methylsulfonamido)-1H-indazol-7-yl)-6-(3-hydroxy-3-methylbut-1-yn-1-yl)pyridin-2-yl)-2-(3,5-difluorophenyl)ethyl)-2-(3-(difluoromethyl)-4,4,7,7-tetrafluoro-4,5,6,7-tetrahydro-1H-indazol-1-yl)acetamide]	99	99	9.7
CC(C)(O)C#Cc1ccc(-c2cccc3c(N)nccc23)c([C@H](Cc2cc(F)cc(F)c2)NC(=O)Cn2nc(C(F)(F)F)c3c2C(F)(F)[C@@H]2C[C@H]32)n1 [Compound 73, N—((S)-1-(3-(1-aminoisoquinolin-5-yl)-6-(3-hydroxy-3-methylbut-1-yn-1-yl)pyridin-2-yl)-2-(3,5-difluorophenyl)ethyl)-2-((3b-S,4aR)-5,5-difluoro-3-(trifluoromethyl)-3b,4,4a,5-tetrahydro-1H-cyclopropa[3,4]cyclopenta[1,2-c]pyrazol-1-yl)acetamide]	86	86	4.49
Cn1nc(N)c2c(C#N)ccc(-c3ccc(C#CC(C)(C)O)nc3[C@H](Cc3cc(F)cc(F)c3)NC(=O)Cn3nc(C(F)F)c4c3C(F)(F)[C@@H]3C[C@H]43)c21 [Compound 77E, N—((S)-1-(3-(3-amino-4-cyano-1-methyl-1H-indazol-7-yl)-6-(3-hydroxy-3-methylbut-1-yn-1-yl)pyridin-2-yl)-2-(3,5-difluorophenyl)ethyl)-2-((3b-S,4aR)-3-(difluoromethyl)-5,5-difluoro-3b,4,4a,5-tetrahydro-1H-cyclopropa[3,4]cyclopenta[1,2-c]pyrazol-1-yl)acetamide]	96	97	11.8
Cn1nc(NS(C)(=O)=O)c2cccc(-c3ccc(C#CC(C)(C)O)nc3[C@H](Cc3cc(F)cc(F)c3)NC(=O)Cn3nc(C(F)(F)F)c4c3C3CC3CO4)c21 (stereo partly drawn) [Compound 67I, N—((S)-2-(3,5-difluorophenyl)-1-(6-(3-hydroxy-3-methylbut-1-yn-1-yl)-3-(1-methyl-3-(methylsulfonamido)-1H-indazol-7-yl)pyridin-2-yl)ethyl)-2-(3-(trifluoromethyl)-5,5a,6,6a-tetrahydro-1H-cyclopropa[4,5]pyrano[3,2-c]pyrazol-1-yl)acetamide]	94	94	21.5
COC(=O)Nc1nn(CC(=O)N[C@@H](Cc2cc(F)cc(F)c2)c2nc(C#CC(C)(C)O)ccc2-c2ccc(Cl)c3c(NS(C)(=O)=O)nn(C)c23)c2c1[C@H]1C[C@H]1C2(F)F [Compound 162, methyl ((3bS,4aR)-1-(2-(((S)-1-(3-(4-chloro-1-methyl-3-(methylsulfonamido)-1H-indazol-7-yl)-6-(3-hydroxy-3-methylbut-1-yn-1-yl)pyridin-2-yl)-2-(3,5-difluorophenyl)ethyl)amino)-2-oxoethyl)-5,5-difluoro-3b,4,4a,5-tetrahydro-1H-cyclopropa[3,4]cyclopenta[1,2-c]pyrazol-3-yl)carbamate]	81	81	22.4
Cn1nc(NC(=O)C(F)F)c2c(Cl)ccc(-c3ccc(C#CC(C)(C)O)nc3[C@H](Cc3cc(F)cc(F)c3)NC(=O)Cn3nc(C(F)F)c4c3C(F)(F)[C@@H]3C[C@H]43)c21 [Compound 97, N-(4-chloro-7-(2-((S)-1-(2-((3b-S,4aR)-3-(difluoromethyl)-5,5-difluoro-3b,4,4a,5-tetrahydro-1H-cyclopropa[3,4]cyclopenta[1,2-c]pyrazol-1-yl)acetamido)-2-(3,5-difluorophenyl)ethyl)-6-(3-hydroxy-3-methylbut-1-yn-1-yl)pyridin-3-yl)-1-methyl-1H-indazol-3-yl)-2,2-difluoroacetamide]	100	100	7.6
Cn1nc(NS(C)(=O)=O)c2c(Cl)ccc(-c3ccc(C#CC(C)(O)C(F)F)nc3[C@H](Cc3cc(F)cc(F)c3)NC(=O)Cn3nc(C(F)(F)F)c4c3C(F)(F)[C@@H]3C[C@H]43)c21 (stereo partly drawn) [Compound 157G, N-((1S)-1-(3-(4-chloro-1-methyl-3-(methylsulfonamido)-1H-indazol-7-yl)-6-(4,4-difluoro-3-hydroxy-3-methylbut-1-yn-1-yl)pyridin-2-yl)-2-(3,5-difluorophenyl)ethyl)-2-((3b-S,4aR)-5,5-difluoro-3-(trifluoromethyl)-3b,4,4a,5-tetrahydro-1H-cyclopropa[3,4]cyclopenta[1,2-c]pyrazol-1-yl)acetamide]	87	87	10.9
C#Cc1ccc(-c2ccc(Cl)c3cnn(C)c23)c([C@H](Cc2cc(F)cc(F)c2)NC(=O)Cn2nc(C(F)F)c3c2C(F)(F)[C@@H]2C[C@H]32)n1 [Compound 136D, N—((S)-1-(3-(4-chloro-1-methyl-1H-indazol-7-yl)-6-ethynylpyridin-2-yl)-2-(3,5-difluorophenyl)ethyl)-2-((3b-S,4aR)-3-(difluoromethyl)-5,5-difluoro-3b,4,4a,5-tetrahydro-1H-cyclopropa[3,4]cyclopenta[1,2-c]pyrazol-1-yl)acetamide]			7.43
Cn1nc(NS(=O)(=O)C(F)(F)F)c2c(Cl)ccc(-c3ccc(C#CC(C)(C)O)nc3[C@H](Cc3cc(F)cc(F)c3)NC(=O)Cn3nc(C(F)F)c4c3C(F)(F)[C@@H]3C[C@H]43)c21 [Compound 171D, N—((S)-1-(3-(4-chloro-1-methyl-3-(trifluoromethylsulfonamido)-1H-indazol-7-yl)-6-(3-hydroxy-3-methylbut-1-yn-1-yl)pyridin-2-yl)-2-(3,5-difluorophenyl)ethyl)-2-((3b-S,4aR)-3-(difluoromethyl)-5,5-difluoro-3b,4,4a,5-tetrahydro-1H-cyclopropa[3,4]cyclopenta[1,2-c]pyrazol-1-yl)acetamide]			> 42.5
Cn1nc(NS(C)(=O)=O)c2cccc(-c3cnc([C@H](Cc4cc(F)cc(F)c4)NC(=O)Cn4nc(C(F)F)c5c4C(F)(F)[C@@H]4C[C@H]54)c(-c4cccc5c(NS(C)(=O)=O)nn(C)c45)n3)c21 [Compound 146I, N—((S)-1-(3,5-bis(1-methyl-3-(methylsulfonamido)-1H-indazol-7-yl)pyrazin-2-yl)-2-(3,5-difluorophenyl)ethyl)-2-((3b-S,4aR)-3-(difluoromethyl)-5,5-difluoro-3b,4,4a,5-tetrahydro-1H-cyclopropa[3,4]cyclopenta[1,2-c]pyrazol-1-yl)acetamide]			33.5
Cn1nc(NS(C)(=O)=O)c2c(Cl)ccc(-c3ccc(C#CC(C)(C)O)nc3[C@H](Cc3cc(F)cc(F)c3)NC(=O)Cn3nc(C(=O)O)c4c3C(F)(F)[C@@H]3C[C@H]43)c21 [Compound 147, (3bS,4aR)-1-(2-(((S)-1-(3-(4-chloro-1-methyl-3-(methylsulfonamido)-1H-indazol-7-yl)-6-(3-hydroxy-3-methylbut-1-yn-1-yl)pyridin-2-yl)-2-(3,5-difluorophenyl)ethyl)amino)-2-oxoethyl)-5,5-difluoro-3b,4,4a,5-tetrahydro-1H-cyclopropa[3,4]cyclopenta[1,2-c]pyrazole-3-carboxylic acid]			> 53.2
O=C(Cn1nc(C(F)F)c2c1C(F)(F)CCC2(F)F)N[C@@H](Cc1cc(F)cc(F)c1)c1ncc(-c2cnc3[nH]ccc3c2)cc1-c1cnc2[nH]ccc2c1 [Compound 11, (S)—N-(1-(3,5-di(1H-pyrrolo[2,3-b]pyridin-5-yl)pyridin-2-yl)-2-(3,5-difluorophenyl)ethyl)-2-(3-(difluoromethyl)-4,4,7,7-tetrafluoro-4,5,6,7-tetrahydro-1H-indazol-1-yl)acetamide]	3		

— patent US20140303164A1, “THERAPEUTIC COMPOUNDS” (Gilead Sciences, Inc., priority 2013, published 2014)
